# Active and inactive are the calls of the source.
# Columns and labels:
# [1] = viability inhibitors of stage V gametocytes – luminescence, dose response (AID 1117278); type: functional, cell-based;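 also: gametocytes exposed to compound for 24 hours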
# [2] = viability loss in human Jurkat cells – cell-based, luminescence, cytotoxicity control for P. falciparum gametocyte viability project, dose response (AID 1117277); type: functional;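 also: potency reflects loss of cellular ATP meaning fewer viable cells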
# [3] = molecular target: T1, Mannose-6-phosphate isomerase (Homo sapiens, UniProt P34949); assay: MPI inhibition at elevated mannose 6-phosphate – biochemical, fluorescence intensity, high mannose 6-phosphate, primary screen (AID 1220)
# T1 sequence (P34949 whole entry): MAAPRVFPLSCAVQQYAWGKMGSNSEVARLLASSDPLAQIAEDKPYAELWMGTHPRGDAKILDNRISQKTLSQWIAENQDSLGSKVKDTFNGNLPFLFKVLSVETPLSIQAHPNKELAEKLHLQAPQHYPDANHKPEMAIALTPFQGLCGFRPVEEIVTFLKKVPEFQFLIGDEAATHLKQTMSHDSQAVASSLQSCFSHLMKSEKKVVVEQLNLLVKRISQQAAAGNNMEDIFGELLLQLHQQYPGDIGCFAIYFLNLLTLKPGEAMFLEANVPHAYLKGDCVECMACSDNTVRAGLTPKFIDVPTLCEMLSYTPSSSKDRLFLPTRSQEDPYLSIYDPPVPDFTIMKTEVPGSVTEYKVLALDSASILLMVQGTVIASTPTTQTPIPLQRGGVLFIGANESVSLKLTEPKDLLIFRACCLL
# [4] = molecular target: Kallikrein-7 (Homo sapiens, UniProt P49862); assay: Fluorescence Intensity-based biochemical primary high throughput dose response assay to identify activators of kallikrein-7 (K7) zymogen.
# [5] = molecular target: Prothrombin (Homo sapiens, UniProt P00734); assay: Thrombin 1536 HTS Dose Response Confirmation. [Related pubchem assays: 1046 (Thrombin 1536 HTS; hits were confirmed in this assay)]; type: functional
# [6] = molecular target: T2, Protein Tat (Human immunodeficiency virus type 1 group M subtype B (isolate HXB2)(HIV-1), UniProt P04608); type: functional;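 also: tat binding to TAR RNA read out by fluorescence polarization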
# T2 sequence (P04608 whole entry): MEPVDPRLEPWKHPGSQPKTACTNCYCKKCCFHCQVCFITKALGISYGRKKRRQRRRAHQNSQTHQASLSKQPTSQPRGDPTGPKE
# [7] = system: H9c2; assay: cells; type: functional, cell-based; conditions: Rattus norvegicus, H9c2, Myocardium;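 also: confirmatory concentration-response retest of ultra-high-throughput screening hits for modulation of myocardial damage; cell death induced by hydrogen peroxide oxidative stress; compound pretreatment for 60 min then peroxide exposure for 2 h; potency is for protecting the cells against peroxide damage rather than for killing them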
# [8] = molecular target: T3, Beta-galactosidase (Escherichia coli, UniProt Q8VNN2); assay: detection-enzyme interference by beta-gal modulators – biochemical, E. coli enzyme, set 3, artefact control for CCR6 antagonist project, dose response (AID 504712); type: functional
# [9] = molecular target: DNA dC->dU-editing enzyme APOBEC-3A (Homo sapiens, UniProt P31941); assay: Dose Response confirmation of small molecule APOBEC3A DNA Deaminase Inhibitors via a fluorescence-based single-stranded DNA deaminase assay. [Related pubchem assays (depositor defined):AID493011, AID493024]; type: functional
# [10] = molecular target: DNA dC->dU-editing enzyme APOBEC-3G (Homo sapiens, UniProt Q9HC16); type: functional;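 also: Dose-response counterscreen measuring inhibition of APOBEC3G DNA deaminase activity, run while confirming APOBEC3A inhibitors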
# [11] = molecular target: T3, Beta-galactosidase; assay: Dose response counterscreen for EBI2 assay utilizing the enzyme, b-galactosidase.; type: functional
# [12] = blockers of HIV-1 envelope-mediated cell-cell fusion – cherry-pick, dose response (AID 652057); type: functional, cell-based
# [13] = viability loss in CEM21 cells – cell-based, CellTiter-Glo luminescence, cherry-picked, cytotoxicity control for viral fusion inhibitor project, dose response (AID 652042); type: functional;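 also: potency for signal decrease meaning cytotoxicity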
# [14] = blockers of HIV-1 ZM109 envelope-driven cell-cell fusion – HeLa effector, CEM target cells, luciferase, cherry-pick, dose response (AID 652058); type: functional, cell-based;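 also: luciferase signal from HIV-1 Env mediated cell-cell fusion of effector and target cells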
# [15] = off-target signal loss in HeLa-CEM21 co-culture – HeLa F-luc CTL cells, cherry-picked, counter-screen for HIV-1 Env fusion inhibitor project, dose response (AID 652040); type: functional, cell-based;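 also: potency for signal decrease marking cytotoxic or nonspecific inhibition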
# [16] = HIV-1 AD8 envelope cell-cell fusion blockers – cherry-pick, dose response (AID 652062); type: functional, cell-based;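 also: luciferase signal from cell-cell fusion driven by HIV-1 clade B AD8 Env; potency is for inhibitors of fusion seen as a drop in luminescence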
# [17] = Luminescence Cell-Based Dose Confirmation HTS to Identify Activators of 5'UTR Stem-Loop Driven Alpha-Synuclein mRNA Translation in H4 Neuroglioblastoma Cells. [Related pubchem assays: 1829 (Project Summary), 1814 (Primary HTS)]; type: functional
# [18] = Luminescence Cell-Based Dose Response HTS to Identify Activators of Luciferase Translation or Activity in H4 […] Cells. [Related pubchem assays: 1829 (Project Summary), 1814 (Primary HTS)]; type: functional
# [19] = system: H4; assay: Luminescence Cell-Based Dose Response HTS to Identify Activators of 5'UTR Stem-Loop Driven Prion Protein mRNA Translation in H4 Neuroglioblastoma Cells. [Related pubchem assays: 1829 (Project Summary), 1814 (Primary HTS)]; type: functional; conditions: Homo sapiens
# [20] = system: Vero; assay: mammalian cell viability reduction – secondary assay, cytotoxicity control for West Nile virus antiviral project, dose response (AID 1650); type: functional; conditions: Chlorocebus sabaeus
# [21] = Luminescence Cell-Based Dose Retest to Confirm Inhibitors of Cancer Stem Cells. [Related pubchem assays (depositor defined):AID2717, AID2721]; type: functional; conditions: Homo sapiens
# [22] = system: Vero; assay: cells; type: functional; conditions: Chlorocebus sabaeus
# [23] = Trypanosoma cruzi growth suppression in host cells – NIH3T3 host cells, beta-gal luminescence, confirmation (AID 2044); type: functional, cell-based;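 also: intracellular parasites grown in NIH/3T3 mouse fibroblasts as host cells; luminescent beta-galactosidase reporter signal from transgenic T. cruzi replicating inside host cells; inhibitors lower the luminescence signal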
# [24] = NIH3T3 cell viability loss – ATP luminescence, mouse fibroblasts, counter-screen, dose response (AID 2010); type: functional, cell-based;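 also: cells exposed to compound for about 90 hours before reading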
# [25] = molecular target: Nonstructural protein 1 (Influenza A virus, UniProt Q194T2); type: functional, Influenza A virus (A/California/07/2009(H1N1))
# [26] = molecular target: Heat shock protein HSP 90-alpha (Homo sapiens, UniProt P07900); type: functional, organism-based
# [27] = molecular target: T4, Aminopeptidase N (Plasmodium falciparum FcB1/Columbia, UniProt O96935); assay: malaria alanyl aminopeptidase activity blockers – biochemical, fluorogenic H-Leu-NHMec substrate, 1536-well (AID 1445); parameters: species or system Plasmodium falciparum 3D7, 3D7
# T4 sequence (O96935 whole entry): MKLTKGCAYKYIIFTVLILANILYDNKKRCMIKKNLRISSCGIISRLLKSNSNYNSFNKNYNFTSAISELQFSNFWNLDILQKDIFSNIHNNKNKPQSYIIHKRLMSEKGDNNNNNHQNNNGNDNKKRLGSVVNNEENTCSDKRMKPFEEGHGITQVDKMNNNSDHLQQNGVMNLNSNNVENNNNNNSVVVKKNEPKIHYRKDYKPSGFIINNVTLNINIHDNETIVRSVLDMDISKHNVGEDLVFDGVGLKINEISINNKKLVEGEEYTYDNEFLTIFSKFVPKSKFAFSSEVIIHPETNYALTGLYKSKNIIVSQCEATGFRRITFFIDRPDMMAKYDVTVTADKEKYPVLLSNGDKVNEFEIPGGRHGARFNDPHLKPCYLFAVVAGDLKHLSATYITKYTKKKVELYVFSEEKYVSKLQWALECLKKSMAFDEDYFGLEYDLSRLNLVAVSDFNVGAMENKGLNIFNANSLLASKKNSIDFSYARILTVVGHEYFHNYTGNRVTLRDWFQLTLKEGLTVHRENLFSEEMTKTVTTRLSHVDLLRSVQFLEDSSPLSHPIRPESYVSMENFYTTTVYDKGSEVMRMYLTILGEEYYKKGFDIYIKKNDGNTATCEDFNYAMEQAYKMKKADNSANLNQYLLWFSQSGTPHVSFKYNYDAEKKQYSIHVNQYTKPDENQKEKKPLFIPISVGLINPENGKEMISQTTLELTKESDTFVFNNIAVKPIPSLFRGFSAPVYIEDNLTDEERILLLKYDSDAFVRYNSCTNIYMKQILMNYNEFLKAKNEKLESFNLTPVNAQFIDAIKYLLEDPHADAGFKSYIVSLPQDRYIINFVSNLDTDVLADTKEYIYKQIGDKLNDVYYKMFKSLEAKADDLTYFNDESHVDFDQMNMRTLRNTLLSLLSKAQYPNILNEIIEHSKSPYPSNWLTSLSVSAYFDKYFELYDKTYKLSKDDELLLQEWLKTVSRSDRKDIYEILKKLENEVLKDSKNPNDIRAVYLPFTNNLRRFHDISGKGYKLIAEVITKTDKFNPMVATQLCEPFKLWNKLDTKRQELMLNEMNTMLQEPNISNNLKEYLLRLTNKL
# [28] = molecular target: Cytochrome P450 2C19 (Homo sapiens, UniProt P33261); assay: Cytochrome panel assay with activity outcomes. Panel member name: p450-cyp2c19 Compounds with AC50 equal or less than 10 uM are considered active; type: functional; conditions: read-out: AC50
# [29] = molecular target: Paired box protein Pax-8 (Homo sapiens, UniProt Q06710); assay: PAX8 transcriptional activity inhibition in RMG-I – RMG-I cells, luciferase, cherry-pick, dose response (AID 687027); type: functional, cell-based;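 also: luciferase reporter driven by Pax8 target thyroperoxidase promoter measured by SteadyGlo luminescence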
# [30] = OVCAR-3 cell viability loss – plate reader, dry powder samples, PAX8 inhibitor project, dose response (AID 743044); type: functional, cell-based
# [31] = IGROV1 cell killing – plate reader, dry powder samples, PAX8 inhibitor project, dose response (AID 743043); type: functional, cell-based; conditions: IGROV-1
# [32] = OVCAR8 cell viability loss – plate reader, dry powder samples, PAX8 project, dose response (AID 743197); type: functional, cell-based; conditions: OVCAR-8
# Kallikrein-7, sequence (P49862 whole entry): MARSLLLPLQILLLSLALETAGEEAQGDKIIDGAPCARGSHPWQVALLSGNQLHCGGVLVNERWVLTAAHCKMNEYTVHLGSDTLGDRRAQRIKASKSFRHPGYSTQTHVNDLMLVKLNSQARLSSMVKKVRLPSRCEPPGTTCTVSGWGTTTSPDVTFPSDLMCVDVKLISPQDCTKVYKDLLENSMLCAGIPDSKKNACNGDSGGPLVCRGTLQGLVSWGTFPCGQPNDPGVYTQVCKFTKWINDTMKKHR
# T3 sequence (Q8VNN2 whole entry): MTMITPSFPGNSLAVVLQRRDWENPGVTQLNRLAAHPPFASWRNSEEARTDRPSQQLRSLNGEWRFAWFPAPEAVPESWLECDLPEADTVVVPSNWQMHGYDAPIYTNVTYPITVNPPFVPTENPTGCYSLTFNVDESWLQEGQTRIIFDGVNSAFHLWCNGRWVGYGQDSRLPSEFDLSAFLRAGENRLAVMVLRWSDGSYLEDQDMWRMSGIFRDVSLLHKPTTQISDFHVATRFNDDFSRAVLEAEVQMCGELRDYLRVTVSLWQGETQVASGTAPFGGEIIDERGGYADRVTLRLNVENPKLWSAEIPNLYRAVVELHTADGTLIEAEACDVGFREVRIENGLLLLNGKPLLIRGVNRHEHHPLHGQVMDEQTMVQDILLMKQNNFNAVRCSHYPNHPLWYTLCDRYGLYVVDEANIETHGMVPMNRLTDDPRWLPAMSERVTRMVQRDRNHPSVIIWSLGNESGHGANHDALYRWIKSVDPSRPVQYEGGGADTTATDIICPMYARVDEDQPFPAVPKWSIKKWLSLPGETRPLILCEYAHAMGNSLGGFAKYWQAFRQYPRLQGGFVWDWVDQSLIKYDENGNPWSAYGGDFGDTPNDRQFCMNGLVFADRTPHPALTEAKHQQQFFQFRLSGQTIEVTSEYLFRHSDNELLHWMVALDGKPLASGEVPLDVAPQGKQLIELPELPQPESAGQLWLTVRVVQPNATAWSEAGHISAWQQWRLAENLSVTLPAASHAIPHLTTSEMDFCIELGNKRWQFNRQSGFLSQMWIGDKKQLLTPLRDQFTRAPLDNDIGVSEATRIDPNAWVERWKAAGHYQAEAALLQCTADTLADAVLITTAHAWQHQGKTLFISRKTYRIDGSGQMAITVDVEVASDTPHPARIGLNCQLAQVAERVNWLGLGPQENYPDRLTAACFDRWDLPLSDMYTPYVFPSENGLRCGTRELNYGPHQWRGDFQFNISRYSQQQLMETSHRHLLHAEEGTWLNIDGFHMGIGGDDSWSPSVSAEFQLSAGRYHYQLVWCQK
# DNA dC->dU-editing enzyme APOBEC-3A, sequence (P31941 whole entry): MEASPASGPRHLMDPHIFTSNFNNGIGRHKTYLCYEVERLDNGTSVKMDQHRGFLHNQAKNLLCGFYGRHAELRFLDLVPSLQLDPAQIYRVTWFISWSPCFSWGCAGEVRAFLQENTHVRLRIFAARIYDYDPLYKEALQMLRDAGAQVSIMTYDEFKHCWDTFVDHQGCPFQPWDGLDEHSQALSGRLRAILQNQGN
# Nonstructural protein 1, sequence (Q194T2 whole entry): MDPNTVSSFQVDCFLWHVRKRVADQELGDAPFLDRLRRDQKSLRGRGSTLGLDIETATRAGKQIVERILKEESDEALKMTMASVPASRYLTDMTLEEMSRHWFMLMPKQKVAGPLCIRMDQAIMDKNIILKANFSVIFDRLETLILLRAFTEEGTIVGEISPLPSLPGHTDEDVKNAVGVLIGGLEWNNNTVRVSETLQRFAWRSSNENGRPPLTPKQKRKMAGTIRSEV
# DNA dC->dU-editing enzyme APOBEC-3G, sequence (Q9HC16 whole entry): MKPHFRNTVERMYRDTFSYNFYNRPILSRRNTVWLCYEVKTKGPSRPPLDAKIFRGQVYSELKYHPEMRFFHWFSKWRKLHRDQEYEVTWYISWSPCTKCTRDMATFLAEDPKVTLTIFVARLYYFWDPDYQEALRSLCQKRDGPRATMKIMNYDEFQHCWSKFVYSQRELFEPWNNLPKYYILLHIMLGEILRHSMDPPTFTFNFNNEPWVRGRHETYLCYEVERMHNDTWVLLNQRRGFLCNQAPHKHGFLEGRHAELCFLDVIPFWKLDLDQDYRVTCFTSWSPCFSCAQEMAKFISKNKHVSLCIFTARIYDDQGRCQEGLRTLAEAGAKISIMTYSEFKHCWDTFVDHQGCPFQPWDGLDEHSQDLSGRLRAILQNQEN
# Cytochrome P450 2C19, sequence (P33261 whole entry): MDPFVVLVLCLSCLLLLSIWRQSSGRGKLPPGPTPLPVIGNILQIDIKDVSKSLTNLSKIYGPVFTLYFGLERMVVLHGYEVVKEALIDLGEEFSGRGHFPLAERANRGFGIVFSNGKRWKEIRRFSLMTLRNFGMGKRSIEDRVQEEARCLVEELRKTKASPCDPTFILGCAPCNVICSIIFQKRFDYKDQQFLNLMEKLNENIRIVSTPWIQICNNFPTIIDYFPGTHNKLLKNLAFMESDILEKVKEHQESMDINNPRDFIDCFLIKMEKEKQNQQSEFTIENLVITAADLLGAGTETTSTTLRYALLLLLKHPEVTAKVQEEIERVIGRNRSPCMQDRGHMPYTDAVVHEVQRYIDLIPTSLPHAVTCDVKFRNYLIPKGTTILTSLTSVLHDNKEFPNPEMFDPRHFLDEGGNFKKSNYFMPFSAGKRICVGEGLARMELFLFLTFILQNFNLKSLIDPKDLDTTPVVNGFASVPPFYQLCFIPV
# Paired box protein Pax-8, sequence (Q06710 whole entry): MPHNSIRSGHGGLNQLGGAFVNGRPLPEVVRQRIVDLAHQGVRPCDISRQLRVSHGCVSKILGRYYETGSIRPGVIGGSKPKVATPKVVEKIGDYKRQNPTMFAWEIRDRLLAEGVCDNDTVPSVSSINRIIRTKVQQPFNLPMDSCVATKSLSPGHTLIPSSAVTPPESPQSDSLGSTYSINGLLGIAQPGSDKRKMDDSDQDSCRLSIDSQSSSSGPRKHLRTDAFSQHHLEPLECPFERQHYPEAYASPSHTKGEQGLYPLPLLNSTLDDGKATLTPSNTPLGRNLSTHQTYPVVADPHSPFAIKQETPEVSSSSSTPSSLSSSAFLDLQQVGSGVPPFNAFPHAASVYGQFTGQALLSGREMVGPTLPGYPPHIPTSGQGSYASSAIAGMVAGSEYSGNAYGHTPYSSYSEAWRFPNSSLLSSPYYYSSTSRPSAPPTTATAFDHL
smiles,measurement,setting,value
CC(C)C1Oc2ccccc2N(CC(=O)N(Cc2ccccn2)C2CC2)C1=O (configuration not stated),IC50,[1],> 109 µM (inactive)
same,IC50,[2],> 83.3 µM (inactive)
CN(C)c1ccc(C(=S)N2CCOCC2)cc1Br,IC50,[3],> 50 µM (not active)
CCN1c2ccccc2-c2nc3ccccc3n2C1c1ccccn1 (configuration not stated),EC50,[4],> 69.5 µM (inactive)
Nc1nc(-c2cccnc2)nn1C(=O)Cc1ccccc1,IC50,[5],0.0753 µM (active)
COC(=O)CC1=C(C(=O)OC)[C@@H](c2ccccc2[N+](=O)[O-])C(C#N)=C(N)O1,EC50,[4],8.2 µM (active)
CCn1c(SCC(=O)NCc2ccco2)nnc1-c1cccs1,IC50,[6],> 100 µM (active)
Cc1ccc(N2CCN(c3ccc(C)cc3)C2c2ccccn2)cc1,IC50,[6],> 100 µM (active)
O=c1c2ccccc2nc(/C=C/c2ccc(O)cc2)n1-c1ccc(O)cc1,IC50,[7],> 79 µM (inactive)
same,EC50,[4],21.7 µM (inactive)
O=C(NC(=S)N(CCc1ccccc1)CCc1ccccc1)c1ccco1,IC50,[8],> 66.6 µM (inactive)
CCCCn1c(N)c(C(=S)NC(=O)CC(C)C)c(=O)n(C)c1=O,IC50,[8],> 66.6 µM (inactive)
Cn1nnnc1SCC(=O)Nc1ccc(Br)cc1Cl,IC50,[9],5.35 µM (active)
same,IC50,[10],9.75 µM (active)
COc1ccc(N2CCN(C(=O)c3cc(=O)c4cc(C)cc(C)c4o3)CC2)cc1,IC50,[11],> 80 µM (inactive)
O=C1NCC(COCc2ccco2)O1 (configuration not stated),IC50,[5],> 50 µM (not active)
CCN(CC(=O)Nc1c(F)cccc1F)C(=O)/C=C/c1ccc(C)cc1,IC50,[11],> 80 µM (inactive)
O=C(c1ccco1)n1nc(-c2ccco2)nc1SCc1ccccc1,IC50,[5],0.201 µM (active)
CCOC(=O)C1CCN(S(=O)(=O)c2cccc(-c3cn4cccnc4n3)c2)CC1,EC50,[4],> 69.5 µM (inactive)
Cc1oc(-c2cccc(Cl)c2)nc1CN1CCCC(C(=O)NC(C)c2ccc3c(c2)OCCO3)C1 (configuration not stated),AC50,[12],2.58 µM (active)
same,AC50,[13],54.5 µM (active)
same,AC50,[14],3.47 µM (active)
same,AC50,[15],3.92 µM (active)
same,AC50,[16],4.68 µM (active)
CC1=NN(c2ccccc2)C(=O)/C1=C\C=C\c1ccccc1,EC50,[17],> 120 µM (not active)
same,EC50,[18],27.3 µM (active)
same,EC50,[19],> 120 µM (not active)
same,CC50,[20],26.8 µM (active)
same,AC50,[21],4.82 µM (active)
same,CC50,[22],12.1 µM (active)
COc1ccc(-n2nc([N+](=O)[O-])c(NCCC3=CCCCC3)[n+]2[O-])cc1,EC50,[23],0.534 µM (active)
same,EC50,[24],> 60 µM (not active)
same,IC50,[25],41.3 µM (active)
CCN(CC)c1ccc(NC(=O)CN2CCN(CC(=O)Nc3ccccc3OC)CC2)cc1,IC50,[25],79.6 µM (active)
NCCCN1CCOCC1,IC50,[1],> 109 µM (inactive)
same,IC50,[2],> 83.4 µM (inactive)
CC(=NNc1ccc2ccccc2n1)c1ccccc1O,IC50,[8],> 66.6 µM (inactive)
COc1ccc(C(=O)/C=C2\C(=O)Nc3ccc(Br)cc32)cc1,AC50,[26],1.59 µM (active)
same,CC50,[22],14.9 µM (active)
same,IC50,[11],71.6 µM (inactive)
CCCCN(C(=O)c1cnccn1)c1c(N)n(CCC)c(=O)[nH]c1=O,IC50,[9],13.7 µM (active)
same,IC50,[10],15.5 µM (active)
CS(=O)(=O)N(CC(=O)N1CCC(C(N)=O)CC1)C1CCCCC1,IC50,[1],> 109 µM (inactive)
same,IC50,[2],> 83.3 µM (inactive)
CC(=O)/N=C1\C(=O)N(C)c2cccc3c(O)c4ccccc4c1c23,IC50,[27],27.9 µM (active)
same,AC50,[28],14.1 µM (inconclusive)
same,IC50,[6],> 100 µM (active)
C[C@H]1CCCCO[C@@H](CN(C)S(=O)(=O)c2ccccc2)[C@@H](C)CN([C@@H](C)CO)C(=O)c2cc(NC(=O)Nc3ccc(C(F)(F)F)cc3)ccc2O1,AC50,[29],6.6 µM (active)
same,AC50,[30],19.4 µM (active)
same,AC50,[31],53.1 µM (active)
same,AC50,[32],52.4 µM (active)
CC(O)C(=O)N/N=C/c1cccc2ccccc12 (configuration not stated),IC50,[5],48.8 µM (active)

# Source: ChEMBL document CHEMBL1201862, “PubChem BioAssay data set” (2004)
